ChEMBL document CHEMBL1201862, “PubChem BioAssay data set” (2004)
Where “and” joins values, the source holds several entries; their conditions need not be identical. Equal entries are not always repeated.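 Following 48 hours of exposure in 96-well plates, responses at five concentrations were used to interpolate endpoints linearly. GI50 = concentration required for 50% inhibition of growth.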 Calls of active or inactive are those of the source. Rule as the data show it: active = GI50 up to about 1.1 µM and inactive = higher.

Key:
Assay in all cases: growth of human tumour cells (NCI), 48 h
OVCAR-8 = tested on: OVCAR-8
SR = tested on: SR
SF-539 = tested on: SF-539
K562 = tested on: K562
786-0 = tested on: 786-0
SK-MEL-2 = tested on: SK-MEL-2
MOLT-4 = tested on: MOLT-4
NCI-H522 = tested on: NCI-H522
SNB-19 = tested on: SNB-19
KM12 = tested on: KM12
LOX IMVI = tested on: LOX IMVI
HT-29 = tested on: HT-29
ACHN = tested on: ACHN
OVCAR-3 = tested on: OVCAR-3
OVCAR-5 = tested on: OVCAR-5
HOP-62 = tested on: HOP-62
OVCAR-4 = tested on: OVCAR-4
BT-549 = tested on: BT-549
MDA-N = tested on: MDA-N
MDA-MB-231 = tested on: MDA-MB-231

| Structure (SMILES) | GI50 (OVCAR-8) | GI50 (SR) | GI50 (SF-539) | GI50 (K562) | GI50 (786-0) | GI50 (SK-MEL-2) | GI50 (MOLT-4) | GI50 (NCI-H522) | GI50 (SNB-19) | GI50 (KM12) | GI50 (LOX IMVI) | GI50 (HT-29) | GI50 (ACHN) | GI50 (OVCAR-3) | GI50 (OVCAR-5) | GI50 (HOP-62) | GI50 (OVCAR-4) | GI50 (BT-549) | GI50 (MDA-N) | GI50 (MDA-MB-231) |
| --- | --- | --- | --- | --- | --- | --- | --- | --- | --- | --- | --- | --- | --- | --- | --- | --- | --- | --- | --- | --- |
| Nc1nc(CCC(=O)Nc2cccc(C(F)(F)F)c2)cc(-c2cccc3ccccc23)n1 | > 100 µM (inactive) | > 100 µM (inactive) | > 100 µM (inactive) | > 100 µM (inactive) | > 100 µM (inactive) | > 100 µM (inactive) | > 100 µM (inactive) | > 100 µM (inactive) | > 100 µM (inactive) | > 100 µM (inactive) | > 100 µM (inactive) | > 100 µM (inactive) | > 100 µM (inactive) | > 100 µM (inactive) | > 100 µM (inactive) | > 100 µM (inactive) | > 100 µM (inactive) | – | – | – |
| CC(C)(C)N1CC2(CCCCC2)C1=O | > 100 µM (inactive) | > 100 µM (inactive) | > 100 µM (inactive) | > 100 µM (inactive) | > 100 µM (inactive) | > 100 µM (inactive) | > 100 µM (inactive) | > 100 µM (inactive) | > 100 µM (inactive) | > 100 µM (inactive) | > 100 µM (inactive) | > 100 µM (inactive) | > 100 µM (inactive) | > 100 µM (inactive) | > 100 µM (inactive) | > 100 µM (inactive) | > 100 µM (inactive) | – | – | – |
| CCc1nc(Cl)c(Cl)c(Cl)n1 | > 100 µM (inactive) | > 100 µM (inactive) | > 100 µM (inactive) | > 100 µM (inactive) | > 100 µM (inactive) | > 100 µM (inactive) | > 100 µM (inactive) | – | > 100 µM (inactive) | > 100 µM (inactive) | > 100 µM (inactive) | > 100 µM (inactive) | > 100 µM (inactive) | > 100 µM (inactive) | > 100 µM (inactive) | > 100 µM (inactive) | > 100 µM (inactive) | > 100 µM (inactive) | – | – |
| O=C1C(=O)N(c2cccc(C(F)(F)F)c2)C(=S)N1c1ccccc1 | 33.7 µM (inactive) | 37.2 µM (inactive) | 26.1 µM (inactive) | 34.5 µM (inactive) | 33.3 µM (inactive) | 19.1 µM (inactive) | 38 µM (inactive) | 6.44 µM (inactive) | 40.5 µM (inactive) | 31.4 µM (inactive) | 1.91 µM (inactive) | 36.5 µM (inactive) | 16.4 µM (inactive) | – | 30 µM (inactive) | 34.2 µM (inactive) | 41.1 µM (inactive) | – | 25.5 µM (inactive) | 24.4 µM (inactive) |
| COc1c2c(cc3nc4ccccc4nc13)CC[C@H](NC(C)=O)c1cc(=O)c(SC)ccc1-2 | 1.63 µM (inactive) | 0.322 µM (active) | 0.304 µM (active) | 0.29 µM (active) | 0.506 µM (active) | 3.05 µM (inactive) | 0.555 µM (active) | 0.275 µM (active) | 0.446 µM (active) | 0.273 µM (active) | 0.755 µM (active) | 1.04 µM (active) | 4.15 µM (inactive) | 0.785 µM (active) | 24.5 µM (inactive) | 11.9 µM (inactive) | 4.27 µM (inactive) | – | 0.18 µM (active) | 2.96 µM (inactive) |
| COC(=O)C1=COC(C)C2CN3CCc4c([nH]c5cc(OC)c(OC)cc45)C3CC12 (stereo not given) | – | 31 µM (inactive) and 58.6 µM (inactive) | > 100 µM (inactive) and 66.7 µM (inactive) | 38.4 µM (inactive) and 37.8 µM (inactive) | > 100 µM (inactive) and 73.8 µM (inactive) | > 100 µM (inactive) | 35.5 µM (inactive) and 28.6 µM (inactive) | – | 66.8 µM (inactive) and 75.3 µM (inactive) | – | > 100 µM (inactive) and 55.5 µM (inactive) | 34.2 µM (inactive) and 34.7 µM (inactive) | 36.3 µM (inactive) and 31.3 µM (inactive) | 58.3 µM (inactive) | > 100 µM (inactive) | 89.7 µM (inactive) | – | – | 55.7 µM (inactive) | > 100 µM (inactive) |
| CC(=O)SCCC(NC(=S)Nc1ccccc1)P(=O)(Oc1ccccc1)Oc1ccccc1 (stereo not given) | > 100 µM (inactive) | > 100 µM (inactive) | > 100 µM (inactive) | > 100 µM (inactive) | > 100 µM (inactive) | – | > 100 µM (inactive) | > 100 µM (inactive) | > 100 µM (inactive) | > 100 µM (inactive) | > 100 µM (inactive) | > 100 µM (inactive) | > 100 µM (inactive) | > 100 µM (inactive) | > 100 µM (inactive) | > 100 µM (inactive) | > 100 µM (inactive) | – | > 100 µM (inactive) | > 100 µM (inactive) |
| C[C@H](NC(=O)n1c2ccccc2c2ccccc21)C(=O)O | > 100 µM (inactive) | > 100 µM (inactive) | > 100 µM (inactive) | > 100 µM (inactive) | > 100 µM (inactive) | > 100 µM (inactive) | > 100 µM (inactive) | > 100 µM (inactive) | > 100 µM (inactive) | > 100 µM (inactive) | > 100 µM (inactive) | > 100 µM (inactive) | > 100 µM (inactive) | > 100 µM (inactive) | > 100 µM (inactive) | > 100 µM (inactive) | – | – | – | – |
| Cc1c(Cl)cccc1NC(=O)c1cccc([N+](=O)[O-])c1O | 21 µM (inactive) | 22.3 µM (inactive) | 15.7 µM (inactive) | 17.3 µM (inactive) | 20.5 µM (inactive) | 10.7 µM (inactive) | 5.82 µM (inactive) | 6.44 µM (inactive) | 8.55 µM (inactive) | 21.4 µM (inactive) | 5.78 µM (inactive) | 12.9 µM (inactive) | 7.83 µM (inactive) | 5.71 µM (inactive) | > 43 µM (inactive) | 9.29 µM (inactive) | 9.79 µM (inactive) | – | – | – |
| CC1(C)CC[C@]2(C(=O)O)CC[C@]3(C)C(=CC[C@@H]4[C@@]5(C)C[C@H](O)[C@H](O)[C@@](C)(CO)C5=CC[C@]43C)[C@@H]2C1 | 37.2 µM (inactive) | > 100 µM (inactive) | > 100 µM (inactive) | 50 µM (inactive) | 55.2 µM (inactive) | > 100 µM (inactive) | 35.6 µM (inactive) | 20.2 µM (inactive) | 42.7 µM (inactive) | 21.4 µM (inactive) | 71.3 µM (inactive) | 55.5 µM (inactive) | 34.8 µM (inactive) | > 100 µM (inactive) | > 100 µM (inactive) | > 100 µM (inactive) | 31.4 µM (inactive) | – | > 100 µM (inactive) | > 100 µM (inactive) |
| O=C(/C=C\c1ccc(Cl)c(Cl)c1)c1ccc(Cl)cc1Cl | 19.1 µM (inactive) | 3.09 µM (inactive) | 20 µM (inactive) | 6.11 µM (inactive) | 17.4 µM (inactive) | 19.7 µM (inactive) | 2.99 µM (inactive) | 15.9 µM (inactive) | 12.4 µM (inactive) | 8.38 µM (inactive) | 5.74 µM (inactive) | 16.8 µM (inactive) | 17.3 µM (inactive) | 18.2 µM (inactive) | > 10 µM (inactive) | > 10 µM (inactive) | 24.4 µM (inactive) | – | – | – |
